Measurements taken from the supplement of paper PMC10307832.

What was measured:
Experiment in all cases: relative viability (nuclei count vs DMSO), 5 days (fraction); higher = more cells survive
LU99A = tested on: LU99A
Outline: (§1)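 Lung cancer cell lines were pin-tool dosed in 1536-well plates on the day after seeding, with either a lone drug or a fixed anchor-drug dose plus five library-drug doses (not always all listed) in √10 steps. Nuclei were counted on 4× images after 5 days. Relative viability is the ratio of treated-well to vehicle-well nuclei counts, with each value a median of duplicate plates.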

NCI-H2170 = tested on: NCI-H2170
Outline: as §1

NCI-H650 = tested on: NCI-H650
Outline: as §1

NCI-H1395 = tested on: NCI-H1395
Outline: as §1

LXF-289 = tested on: LXF-289
Outline: as §1

EMC-BAC-2 = tested on: EMC-BAC-2
Outline: as §1

UMC-11 = tested on: UMC-11
Outline: as §1

COR-L 105 = tested on: COR-L 105
Outline: as §1

HARA = tested on: HARA
Outline: as §1

HCC-78 = tested on: HCC-78
Outline: as §1

BEN = tested on: BEN
Outline: as §1

201T = tested on: 201T
Outline: as §1

SK-MES-1 = tested on: SK-MES-1
Outline: as §1

NCI-H2087 = tested on: NCI-H2087
Outline: as §1

LOU-NH91 = tested on: LOU-NH91
Outline: as §1

H3255 = tested on: H3255
Outline: as §1

LC-2-ad = tested on: LC-2-ad
Outline: as §1

NCI-H2126 = tested on: NCI-H2126
Outline: as §1

NCI-H1563 = tested on: NCI-H1563
Outline: as §1

RERF-LC-KJ = tested on: RERF-LC-KJ
Outline: as §1

HOP-62 = tested on: HOP-62
Outline: as §1

NCI-H1993 = tested on: NCI-H1993
Outline: as §1

SMILES: CN1CCN(CCOc2cc(OC3CCOCC3)c3c(Nc4c(Cl)ccc5c4OCO5)ncnc3c2)CC1 [Saracatinib] + CS(=O)(=O)CCNCc1ccc(-c2ccc3ncnc(Nc4ccc(OCc5cccc(F)c5)c(Cl)c4)c3c2)o1 [Lapatinib] (partner 2 µM)
- relative viability (LU99A; first compound 0.02 µM): 0.963
- relative viability (LU99A; first compound 0.2 µM): 0.748
- relative viability (LU99A; first compound 0.6325 µM): 0.969
- relative viability (LU99A; first compound 2 µM): 0.743
- relative viability (NCI-H2170; first compound 0.02 µM): 0.28
- relative viability (NCI-H2170; first compound 0.2 µM): 0.246
- relative viability (NCI-H2170; first compound 0.6325 µM): 0.293
- relative viability (NCI-H2170; first compound 2 µM): 0.231
- relative viability (NCI-H650; first compound 0.02 µM): 1
- relative viability (NCI-H650; first compound 0.2 µM): 0.85
- relative viability (NCI-H650; first compound 0.6325 µM): 0.928
- relative viability (NCI-H650; first compound 2 µM): 1.17
- relative viability (NCI-H1395; first compound 0.02 µM): 0.911
- relative viability (NCI-H1395; first compound 0.2 µM): 0.921
- relative viability (NCI-H1395; first compound 0.6325 µM): 0.953
- relative viability (NCI-H1395; first compound 2 µM): 0.733
- relative viability (LXF-289; first compound 0.02 µM): 0.95
- relative viability (LXF-289; first compound 0.2 µM): 0.895
- relative viability (LXF-289; first compound 0.6325 µM): 0.955
- relative viability (LXF-289; first compound 2 µM): 0.901
- relative viability (EMC-BAC-2; first compound 0.02 µM): 0.91
- relative viability (EMC-BAC-2; first compound 0.2 µM): 0.792
- relative viability (EMC-BAC-2; first compound 0.6325 µM): 0.945
- relative viability (EMC-BAC-2; first compound 2 µM): 0.761
- relative viability (UMC-11; first compound 0.02 µM): 0.931
- relative viability (UMC-11; first compound 0.2 µM): 0.763
- relative viability (UMC-11; first compound 0.6325 µM): 0.896
- relative viability (UMC-11; first compound 2 µM): 0.78
- relative viability (COR-L 105; first compound 0.02 µM): 0.389
- relative viability (COR-L 105; first compound 0.2 µM): 0.281
- relative viability (COR-L 105; first compound 0.6325 µM): 0.311
- relative viability (COR-L 105; first compound 2 µM): 0.279
- relative viability (HARA; first compound 0.02 µM): 0.808
- relative viability (HARA; first compound 0.6325 µM): 1.1
- relative viability (HARA; first compound 2 µM): 0.442
- relative viability (HCC-78; first compound 0.02 µM): 0.822
- relative viability (HCC-78; first compound 0.2 µM): 0.481
- relative viability (HCC-78; first compound 0.6325 µM): 0.686
- relative viability (HCC-78; first compound 2 µM): 0.778
- relative viability (BEN; first compound 0.02 µM): 0.745
- relative viability (BEN; first compound 0.2 µM): 0.541
- relative viability (BEN; first compound 0.6325 µM): 0.911
- relative viability (BEN; first compound 2 µM): 0.489
- relative viability (201T; first compound 0.02 µM): 1
- relative viability (201T; first compound 0.2 µM): 0.856
- relative viability (201T; first compound 0.6325 µM): 0.998
- relative viability (201T; first compound 2 µM): 0.859
- relative viability (SK-MES-1; first compound 0.02 µM): 0.442
- relative viability (SK-MES-1; first compound 0.2 µM): 0.425
- relative viability (SK-MES-1; first compound 0.6325 µM): 0.47
- relative viability (SK-MES-1; first compound 2 µM): 0.41
- relative viability (NCI-H2087; first compound 0.02 µM): 1.1
- relative viability (NCI-H2087; first compound 0.2 µM): 1.03
- relative viability (NCI-H2087; first compound 0.6325 µM): 1.25
- relative viability (NCI-H2087; first compound 2 µM): 0.981
- relative viability (LOU-NH91; first compound 0.02 µM): 0.824
- relative viability (LOU-NH91; first compound 0.2 µM): 0.713
- relative viability (LOU-NH91; first compound 0.6325 µM): 0.747
- relative viability (LOU-NH91; first compound 2 µM): 0.652
- relative viability (H3255; first compound 0.02 µM): 0.27
- relative viability (H3255; first compound 0.2 µM): 0.241
- relative viability (H3255; first compound 0.6325 µM): 0.271
- relative viability (H3255; first compound 2 µM): 0.239
- relative viability (LC-2-ad; first compound 0.02 µM): 1.06
- relative viability (LC-2-ad; first compound 0.6325 µM): 0.998
- relative viability (LC-2-ad; first compound 2 µM): 0.761
- relative viability (NCI-H2126; first compound 0.02 µM): 0.813
- relative viability (NCI-H2126; first compound 0.2 µM): 0.686
- relative viability (NCI-H2126; first compound 0.6325 µM): 0.732
- relative viability (NCI-H2126; first compound 2 µM): 0.626
- relative viability (NCI-H1563; first compound 0.02 µM): 0.941
- relative viability (NCI-H1563; first compound 0.2 µM): 0.778
- relative viability (NCI-H1563; first compound 0.6325 µM): 0.831
- relative viability (NCI-H1563; first compound 2 µM): 0.775
- relative viability (RERF-LC-KJ; first compound 0.02 µM): 0.893
- relative viability (RERF-LC-KJ; first compound 0.2 µM): 0.82
- relative viability (RERF-LC-KJ; first compound 0.6325 µM): 0.881
- relative viability (RERF-LC-KJ; first compound 2 µM): 1.02
- relative viability (HOP-62; first compound 0.02 µM): 1.21
- relative viability (HOP-62; first compound 0.2 µM): 0.816
- relative viability (HOP-62; first compound 0.6325 µM): 1.05
- relative viability (HOP-62; first compound 2 µM): 1.21
- relative viability (NCI-H1993; first compound 0.02 µM): 0.864
- relative viability (NCI-H1993; first compound 0.2 µM): 0.737
- relative viability (NCI-H1993; first compound 2 µM): 0.691

SMILES: Nc1cccc2c1CN(C1CCC(=O)NC1=O)C2=O (stereo unspecified) [Lenalidomide] + Cc1nc(NC(=O)N2CCC[C@H]2C(N)=O)sc1-c1ccnc(C(C)(C)C(F)(F)F)c1 [Alpelisib] (partner 2 µM)
- relative viability (LU99A; first compound 0.253 µM): 0.47
- relative viability (LU99A; first compound 0.8 µM): 0.501
- relative viability (LU99A; first compound 2.53 µM): 0.501
- relative viability (LU99A; first compound 8 µM): 0.317
- relative viability (NCI-H2170; first compound 0.253 µM): 0.881
- relative viability (NCI-H2170; first compound 0.8 µM): 0.781
- relative viability (NCI-H2170; first compound 2.53 µM): 0.84
- relative viability (NCI-H2170; first compound 8 µM): 0.755
- relative viability (NCI-H650; first compound 0.253 µM): 1.22
- relative viability (NCI-H650; first compound 2.53 µM): 1.41
- relative viability (NCI-H650; first compound 8 µM): 1.15
- relative viability (NCI-H1395; first compound 0.253 µM): 0.946
- relative viability (NCI-H1395; first compound 2.53 µM): 1.06
- relative viability (NCI-H1395; first compound 8 µM): 0.948
- relative viability (LXF-289; first compound 0.253 µM): 1.05
- relative viability (LXF-289; first compound 0.8 µM): 1.05
- relative viability (LXF-289; first compound 2.53 µM): 1.11
- relative viability (LXF-289; first compound 8 µM): 1.08
- relative viability (EMC-BAC-2; first compound 0.253 µM): 0.691
- relative viability (EMC-BAC-2; first compound 0.8 µM): 0.706
- relative viability (EMC-BAC-2; first compound 2.53 µM): 0.762
- relative viability (EMC-BAC-2; first compound 8 µM): 0.625
- relative viability (UMC-11; first compound 0.253 µM): 1.05
- relative viability (UMC-11; first compound 0.8 µM): 0.961
- relative viability (UMC-11; first compound 2.53 µM): 1.03
- relative viability (UMC-11; first compound 8 µM): 0.958
- relative viability (COR-L 105; first compound 0.253 µM): 0.982
- relative viability (COR-L 105; first compound 0.8 µM): 0.81
- relative viability (COR-L 105; first compound 2.53 µM): 1.07
- relative viability (COR-L 105; first compound 8 µM): 0.994
- relative viability (HARA; first compound 0.253 µM): 0.782
- relative viability (HARA; first compound 0.8 µM): 0.771
- relative viability (HARA; first compound 2.53 µM): 0.921
- relative viability (HARA; first compound 8 µM): 0.743
- relative viability (HCC-78; first compound 0.253 µM): 0.381
- relative viability (HCC-78; first compound 0.8 µM): 0.339
- relative viability (HCC-78; first compound 2.53 µM): 0.314
- relative viability (HCC-78; first compound 8 µM): 0.209
- relative viability (BEN; first compound 0.253 µM): 1.05
- relative viability (BEN; first compound 0.8 µM): 1.01
- relative viability (BEN; first compound 2.53 µM): 1.16
- relative viability (BEN; first compound 8 µM): 0.788
- relative viability (201T; first compound 0.253 µM): 1.11
- relative viability (201T; first compound 0.8 µM): 1.15
- relative viability (201T; first compound 2.53 µM): 1.06
- relative viability (201T; first compound 8 µM): 0.984
- relative viability (SK-MES-1; first compound 0.253 µM): 0.908
- relative viability (SK-MES-1; first compound 0.8 µM): 1.02
- relative viability (SK-MES-1; first compound 2.53 µM): 0.975
- relative viability (SK-MES-1; first compound 8 µM): 0.617
- relative viability (NCI-H2087; first compound 0.253 µM): 0.996
- relative viability (NCI-H2087; first compound 0.8 µM): 0.945
- relative viability (NCI-H2087; first compound 2.53 µM): 1.17
- relative viability (NCI-H2087; first compound 8 µM): 1.08
- relative viability (LOU-NH91; first compound 0.253 µM): 0.686
- relative viability (LOU-NH91; first compound 0.8 µM): 0.762
- relative viability (LOU-NH91; first compound 2.53 µM): 0.73
- relative viability (LOU-NH91; first compound 8 µM): 0.662
- relative viability (H3255; first compound 0.253 µM): 0.664
- relative viability (H3255; first compound 0.8 µM): 0.682
- relative viability (H3255; first compound 2.53 µM): 0.916
- relative viability (H3255; first compound 8 µM): 0.584
- relative viability (LC-2-ad; first compound 0.253 µM): 0.86
- relative viability (LC-2-ad; first compound 0.8 µM): 0.98
- relative viability (LC-2-ad; first compound 2.53 µM): 0.84
- relative viability (LC-2-ad; first compound 8 µM): 0.881
- relative viability (NCI-H2126; first compound 0.253 µM): 0.735
- relative viability (NCI-H2126; first compound 0.8 µM): 0.75
- relative viability (NCI-H2126; first compound 2.53 µM): 0.646
- relative viability (NCI-H2126; first compound 8 µM): 0.55
- relative viability (NCI-H1563; first compound 0.253 µM): 0.843
- relative viability (NCI-H1563; first compound 0.8 µM): 0.908
- relative viability (NCI-H1563; first compound 2.53 µM): 0.829
- relative viability (NCI-H1563; first compound 8 µM): 0.87
- relative viability (RERF-LC-KJ; first compound 0.253 µM): 0.624
- relative viability (RERF-LC-KJ; first compound 0.8 µM): 0.904
- relative viability (RERF-LC-KJ; first compound 2.53 µM): 0.752
- relative viability (RERF-LC-KJ; first compound 8 µM): 0.637
- relative viability (HOP-62; first compound 0.253 µM): 0.983
- relative viability (HOP-62; first compound 0.8 µM): 1.08
- relative viability (HOP-62; first compound 2.53 µM): 0.984
- relative viability (HOP-62; first compound 8 µM): 0.828
- relative viability (NCI-H1993; first compound 0.253 µM): 0.744
- relative viability (NCI-H1993; first compound 0.8 µM): 0.734
- relative viability (NCI-H1993; first compound 2.53 µM): 0.683
- relative viability (NCI-H1993; first compound 8 µM): 0.713
